Test system: hypoxia-induced VEGF production in HeLa cells
Experiment: cells
Type: cell-based, human
Conditions: Homo sapiens, HeLa

SMILES: CC#CCOC(=O)N1CCc2c([nH]c3ccc(Cl)cc23)C1c1ccc(OC2CCOCC2)cc1 (centres unmarked) [Compound 1576]
- EC50: < 8 nM

SMILES: COc1cc(C2c3[nH]c4ccc(Cl)cc4c3CCN2C(=O)Oc2ccc(C)cc2)ccc1OCCCN1CCOCC1 (centres unmarked) [Compound 1132]
- EC50: 8 to 40 nM

SMILES: COc1ccc(C2c3[nH]c4cccc(Br)c4c3CCN2C(=O)Oc2ccc(Cl)cc2)cc1 (centres unmarked) [Compound 1525]
- EC50: 40 to 200 nM

SMILES: CCOC(=O)N1CCc2c([nH]c3ccc(Cl)cc23)[C@@H]1c1ccc(OCCC(O)Cn2nccn2)cc1 (some centres unmarked) [Compound 1275]
- EC50: < 8 nM

SMILES: CCOC(=O)N1CCc2c([nH]c3c(C)cccc23)C1c1ccc(OC)cc1 (centres unmarked) [Compound 1428]
- EC50: > 1000 nM

SMILES: O=C(Oc1ccc(Cl)cc1)N1CCc2c([nH]c3ccc(Cl)cc23)C1c1ccc(OCCCN2CCC(CO)C2)cc1 (centres unmarked) [Compound 1098]
- EC50: 8 to 40 nM

SMILES: CN1CCN(CCCOc2cccc(C3c4[nH]c5ccc(Cl)cc5c4CCN3C(=O)Oc3ccc(F)cc3)c2)CC1 (centres unmarked) [Compound 1113]
- EC50: 200 to 1000 nM

SMILES: CCCOC(=O)N1CCc2c([nH]c3ccc(Cl)cc23)C1c1ccc(OCC[C@H](O)CO)cc1 (some centres unmarked) [Compound 1174]
- EC50: 8 to 40 nM

SMILES: COc1ccc(OC(=O)N2CCc3c([nH]c4ccc(SC)cc34)C2c2ccc(OC)cc2)cc1 (centres unmarked) [Compound 1484]
- EC50: 40 to 200 nM

SMILES: O[C@@H](COc1ccc([C@H]2c3[nH]c4ccc(Cl)cc4c3CCN2c2ncccn2)cc1)CN1CCCCC1 [Compound 1313]
- EC50: 8 to 40 nM

SMILES: CCOC(=O)N1CCc2c([nH]c3ccc(Cl)cc23)C1c1ccc(OCC(O)CNC(=O)C2CC2)cc1 (centres unmarked) [Compound 1466]
- EC50: 8 to 40 nM

SMILES: COC(=O)N1CCc2c([nH]c3ccc(Cl)cc23)C1c1ccc(OCCCN2CCOCC2)cc1 (centres unmarked) [Compound 1100]
- EC50: 8 to 40 nM

SMILES: CCOC(=O)N1CCc2c([nH]c3ccc(Br)cc23)C1c1ccc(OCC(CC)(CO)CO)cc1 (centres unmarked) [Compound 1354]
- EC50: < 8 nM

SMILES: CCOC(=O)N1CCc2c([nH]c3ccc(Cl)cc23)C1c1ccc(OCCn2cc(C#N)c(N)n2)cc1 (centres unmarked) [Compound 1401]
- EC50: 8 to 40 nM

SMILES: CCOC(=O)N1CCc2c([nH]c3ccc(Cl)cc23)[C@@H]1c1ccc(OC[C@@H](O)CO)cc1 [Compound 1222]
- EC50: < 8 nM

SMILES: CC(C)=CC(=O)N1CCc2c([nH]c3ccc(Cl)cc23)C1c1ccc(OCCCn2cncn2)cc1 (centres unmarked) [Compound 1542]
- EC50: < 8 nM

SMILES: COc1ccc(C2c3[nH]c4cccc(Cl)c4c3CCN2C(=O)Oc2ccc(Br)cc2)cc1 (centres unmarked) [Compound 1532]
- EC50: 40 to 200 nM

SMILES: COc1ccc(C2c3[nH]c4ccc(SC)cc4c3CCN2C(=S)Oc2ccc(F)cc2)cc1 (centres unmarked) [Compound 1486]
- EC50: 8 to 40 nM

SMILES: COCCOC(=O)N1CCc2c([nH]c3ccc(Cl)cc23)C1c1ccc(OCCn2cc(C#N)c(N)n2)cc1 (centres unmarked) [Compound 1438]
- EC50: 40 to 200 nM

SMILES: O=C(OCC1CC1)N1CCc2c([nH]c3ccc(Cl)cc23)[C@@H]1c1ccc(O)cc1 [Compound 1369]
- EC50: 8 to 40 nM

SMILES: CC#CCOC(=O)N1CCc2c([nH]c3ccc(Cl)cc23)C1c1ccc(OCCn2cc(C#N)c(N)n2)cc1 (centres unmarked) [Compound 1434]
- EC50: < 8 nM

SMILES: COc1ccc(C2c3[nH]c4ccc(Cl)cc4c3CCN2C(=O)C(=O)Oc2ccc(C)cc2)cc1 (centres unmarked) [Compound 1721]
- EC50: > 1000 nM

SMILES: Cc1ccc(C2c3[nH]c4cc(F)ccc4c3CCN2C(=O)Oc2ccc(Cl)cc2)cc1 (centres unmarked) [Compound 1457]
- EC50: 200 to 1000 nM

SMILES: CCOC(=O)N1CCc2c([nH]c3ccc(Cl)cc23)[C@@H]1c1ccc(OCCC(O)Cn2ccnn2)cc1 (some centres unmarked) [Compound 1274]
- EC50: < 8 nM

SMILES: Cc1cc(NCCOc2ccc(C3c4[nH]c5ccc(Cl)cc5c4CCN3C(=O)OCC(C)C)cc2)on1 (centres unmarked) [Compound 1405]
- EC50: 40 to 200 nM

SMILES: CC(C)OC(=O)N1CCc2c([nH]c3ccc(Cl)cc23)[C@@H]1c1ccc(OCC(C)(CO)CO)cc1 [Compound 1296]
- EC50: 8 to 40 nM

SMILES: CCOC(=O)N1CCc2c([nH]c3ccc(Cl)cc23)[C@@H]1c1ccc(OCC2(CO)COCOC2)cc1 [Compound 1359]
- EC50: 8 to 40 nM

SMILES: CCOC(=O)N1CCc2c([nH]c3ccc(Cl)cc23)C1c1ccc(OCC(=O)N2CCN(CCOC)CC2)cc1 (centres unmarked) [Compound 1003]
- EC50: 8 to 40 nM

SMILES: C[Si](C)(C)CCS(=O)(=O)N1CCC(Oc2ccc(C3c4[nH]c5ccc(Cl)cc5c4CCN3C(=O)Oc3ccc(F)cc3)cc2)CC1 (centres unmarked) [Compound 1580]
- EC50: < 8 nM

SMILES: CCOC(=O)N1CCc2c([nH]c3ccc(Cl)cc23)[C@@H]1c1ccc(OCCC(O)CNC(=O)COC)cc1 (some centres unmarked) [Compound 1271]
- EC50: 8 to 40 nM

SMILES: CCCN(CCC)CCCOc1ccc([C@H]2c3[nH]c4ccc(Cl)cc4c3CCN2C(=O)OCC)cc1 [Compound 1233]
- EC50: 8 to 40 nM

SMILES: O[C@@H](COc1ccc([C@H]2c3[nH]c4ccc(Cl)cc4c3CCN2c2ncccn2)cc1)CN1CCOCC1 [Compound 1254]
- EC50: < 8 nM

SMILES: COc1ccc(C2c3[nH]c4ccc(Cl)cc4c3CCN2c2nc(-c3ccccn3)cs2)cc1 (centres unmarked) [Compound 1590]
- EC50: 8 to 40 nM

SMILES: CC#CCOC(=O)N1CCc2c([nH]c3cccc(Br)c23)C1c1ccc(OC)cc1 (centres unmarked) [Compound 1523]
- EC50: 40 to 200 nM

SMILES: O=C(COc1ccc(C2c3[nH]c4ccc(Cl)cc4c3CCN2C(=O)Oc2ccc(F)cc2)cc1)NCCN1CCOCC1 (centres unmarked) [Compound 1022]
- EC50: 40 to 200 nM

SMILES: CCOC(=O)NC[C@H](O)COc1ccc([C@H]2c3[nH]c4ccc(Cl)cc4c3CCN2C(=O)Oc2ccc(F)cc2)cc1 [Compound 1663]
- EC50: < 8 nM

SMILES: CCOC(=O)N1CCc2c([nH]c3ccc(Cl)cc23)C1c1ccc(OCC(N)=O)cc1 (centres unmarked) [Compound 1210]
- EC50: 8 to 40 nM

SMILES: CC#CCOC(=O)N1CCc2c([nH]c3ccc(Cl)cc23)[C@@H]1c1ccc(OC2CCN(CCN3CCOCC3)CC2)cc1 [Compound 1679]
- EC50: 8 to 40 nM

SMILES: COc1ccc(C2c3[nH]c4ccc([S+](C)[O-])cc4c3CCN2C(=O)Oc2ccc(F)cc2)cc1 (centres unmarked) [Compound 1491]
- EC50: > 1000 nM

SMILES: C[Si](C)(C)CCS(=O)(=O)N1CCC(Oc2ccc(C3c4[nH]c5ccc(Cl)cc5c4CCN3C(=O)Oc3ccc(Cl)cc3)cc2)CC1 (centres unmarked) [Compound 1581]
- EC50: < 8 nM

SMILES: COc1ccc(OC(=O)N2CCc3c([nH]c4ccc(Cl)cc34)C2c2ccc(OCCCN3CCOCC3)c(OC)c2)cc1 (centres unmarked) [Compound 1131]
- EC50: 8 to 40 nM

SMILES: COC(=O)N1CCc2c([nH]c3c(C)cccc23)C1c1ccc(OC)cc1 (centres unmarked) [Compound 1431]
- EC50: > 1000 nM

SMILES: CCOC(=O)N1CCc2c([nH]c3ccc(Cl)cc23)[C@@H]1c1ccc(OCCC(O)CNC(C)=O)cc1 (some centres unmarked) [Compound 1270]
- EC50: 8 to 40 nM

SMILES: CCOC(=O)N1CCc2c([nH]c3ccc(Cl)cc23)[C@@H]1c1ccc(Oc2ncc(CN3CCOCC3)s2)cc1 [Compound 1656]
- EC50: < 8 nM

SMILES: CCOC(=O)N1CCc2c([nH]c3ccc(Cl)cc23)[C@@H]1c1ccc(Oc2cnc(N)cn2)cc1 [Compound 1655]
- EC50: 40 to 200 nM

SMILES: COc1ccc(C2c3[nH]c4ccc(Cl)cc4c3CCN2C(=N)SC2CCCC2=O)cc1 (centres unmarked) [Compound 1593]
- EC50: 40 to 200 nM

SMILES: COc1ccc(C2c3[nH]c4ccc(C#N)cc4c3CCN2C(=O)Oc2ccc(F)cc2)cc1 (centres unmarked) [Compound 1514]
- EC50: 40 to 200 nM

SMILES: CCOC(=O)N1CCc2c([nH]c3ccc(Cl)cc23)C1c1ccc(OCC[C@H]2COC(C)(C)O2)cc1 (some centres unmarked) [Compound 1163]
- EC50: < 8 nM

SMILES: CCOC(=O)N1CCc2c([nH]c3ccc(Cl)cc23)[C@@H]1c1ccc(OCCC(O)CNC(=O)c2ccccn2)cc1 (some centres unmarked) [Compound 1618]
- EC50: < 8 nM

SMILES: CC(C)OC(=O)N1CCc2c([nH]c3ccc(Cl)cc23)C1c1ccc(OCCCN2CCOCC2)cc1 (centres unmarked) [Compound 1102]
- EC50: < 8 nM

SMILES: COc1ccc(C2c3[nH]c4ccc(SC)cc4c3CCN2C(=O)Oc2ccc(Cl)cc2)cc1 (centres unmarked) [Compound 1483]
- EC50: 8 to 40 nM

SMILES: COCCN(C)CCCOc1cccc(C2c3[nH]c4ccc(Cl)cc4c3CCN2C(=O)Oc2ccc(F)cc2)c1 (centres unmarked) [Compound 1121]
- EC50: > 1000 nM

SMILES: O=C1CN(CCCOc2ccc(C3c4[nH]c5ccc(Cl)cc5c4CCN3C(=O)Oc3ccc(Cl)cc3)cc2)C(=O)N1 (centres unmarked) [Compound 1672]
- EC50: < 8 nM

SMILES: CCOC(=O)N1CCc2c([nH]c3ccc(Cl)cc23)C1c1cccc(C(=O)N(C)CC(=O)O)c1 (centres unmarked) [Compound 1389]
- EC50: > 1000 nM

SMILES: CCCCOC(=O)N1CCc2c([nH]c3ccc(Cl)cc23)C1c1ccc(OCC2OCCO2)cc1 (centres unmarked) [Compound 1035]
- EC50: < 8 nM

SMILES: C[Si](C)(C)CCS(=O)(=O)N1CCC(Oc2ccc([C@H]3c4[nH]c5ccc(Cl)cc5c4CCN3C(=O)Oc3ccc(Cl)cc3)cc2)CC1 [Compound 1652]
- EC50: < 8 nM

SMILES: O=C(COc1ccc(C2c3[nH]c4ccc(Cl)cc4c3CCN2C(=O)Oc2ccc(F)cc2)cc1)N1CCN(CCO)CC1 (centres unmarked) [Compound 1064]
- EC50: 8 to 40 nM

SMILES: C=CCCOC(=O)N1CCc2c([nH]c3ccc(Cl)cc23)C1c1ccc(OCC2OCCO2)cc1 (centres unmarked) [Compound 1045]
- EC50: < 8 nM

SMILES: COc1ccc(C2c3[nH]c4ccc(Cl)cc4c3CCN2c2nc(CC(C)=O)cs2)cc1 (centres unmarked) [Compound 1596]
- EC50: 8 to 40 nM

SMILES: COc1ccc(C2NCCc3c2[nH]c2ccc([S+](C)[O-])cc32)cc1 (centres unmarked) [Compound 1495]
- EC50: > 1000 nM

SMILES: O=C(Oc1ccc(Cl)cc1)N1CCc2c([nH]c3ccc(Cl)cc23)[C@@H]1c1ccc(OCCC(O)CN2CCOCC2)cc1 (some centres unmarked) [Compound 1279]
- EC50: < 8 nM

SMILES: O=C(OCC1CC1)N1CCc2c([nH]c3ccc(Cl)cc23)[C@@H]1c1ccc(OCC[C@H](O)CO)cc1 [Compound 1373]
- EC50: < 8 nM

SMILES: O=C(C1CC1)N1CCc2c([nH]c3ccc(Cl)cc23)C1c1ccc(OCCCn2cncn2)cc1 (centres unmarked) [Compound 1142]
- EC50: 8 to 40 nM

SMILES: O=C(Oc1ccc(F)cc1)N1CCc2c([nH]c3ccc(Cl)cc23)C1c1cccc(OCCCN2CCOCC2)c1 (centres unmarked) [Compound 1115]
- EC50: 8 to 40 nM

SMILES: COc1cc(C2c3[nH]c4ccc(Cl)cc4c3CCN2C(=O)Oc2ccc(Cl)cc2)ccc1OCCCCN1CCOCC1 (centres unmarked) [Compound 1094]
- EC50: 8 to 40 nM

SMILES: CCOC(=O)N1CCc2c([nH]c3ccc(Cl)cc23)[C@@H]1c1ccc(OCCC(O)CNC(=O)c2cccnc2)cc1 (some centres unmarked) [Compound 1617]
- EC50: 8 to 40 nM

SMILES: O=C(OCC1CCCC1)N1CCc2c([nH]c3ccc(Cl)cc23)[C@@H]1c1ccc(OC[C@@H](O)CO)cc1 [Compound 1686]
- EC50: < 8 nM

SMILES: COc1ccc(C2c3[nH]c4ccc(C#N)cc4c3CCN2C(=S)Oc2ccc(F)cc2)cc1 (centres unmarked) [Compound 1515]
- EC50: 40 to 200 nM

SMILES: CCOC(=O)NC[C@@H](O)COc1ccc([C@H]2c3[nH]c4ccc(Cl)cc4c3CCN2C(=O)OCC)cc1 [Compound 1650]
- EC50: < 8 nM

SMILES: CCOC(=O)N1CCc2c([nH]c3ccc(Cl)cc23)[C@@H]1c1ccc(OC[C@H]2COC(C)(C)O2)cc1 [Compound 1226]
- EC50: < 8 nM

SMILES: CCC(CO)(CO)COc1ccc([C@H]2c3[nH]c4ccc(Cl)cc4c3CCN2C(=O)OC2CCCC2)cc1 [Compound 1327]
- EC50: < 8 nM

— patent US11613538B2, “Method of inhibiting or reducing a viral infection” (PTC Therapeutics, Inc., priority 2009, dated 2023)
